From ChEMBL document CHEMBL1201862, “PubChem BioAssay data set” (2004)
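Grown in 96-well plates, cells were treated for 48 hours with each compound at five concentrations. Insufficient inhibition: endpoint recorded as highest concentration tested. GI50 is the concentration that inhibits growth by half.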 Activity calls are given as the source filed them. Rule as the data show it: active = GI50 up to about 1.1 µM and inactive = higher.

Experiments:
Test in all cases: NCI anticancer screen, dose series, 48 h
LXFL 529 = tested on: LXFL 529
DLD-1 = tested on: DLD-1
DMS-114 = tested on: DMS-114
HOP-18 = tested on: HOP-18
KM-20L2 = tested on: KM-20L2
M19-MEL = tested on: M19-MEL
SNB-78 = tested on: SNB-78
RXF 631 = tested on: RXF 631
XF498 = tested on: XF498

Measured: GI50

COc1ccccc1NC(=O)C1=C(C)NC(C)=C(C(=O)Nc2ccccc2OC)C1c1cccc2ccccc12
inactive: LXFL 529 28.1 µM | DLD-1 38.7 µM | DMS-114 25.6 µM | HOP-18 76.7 µM | KM-20L2 > 100 µM | M19-MEL 90.4 µM | SNB-78 4.44 µM | RXF 631 87.9 µM | XF498 45.3 µM

O=C(CCCCCCCCCCc1ccccc1)c1c(O)cccc1O
inactive: LXFL 529 18.6 µM | DLD-1 21.3 µM | DMS-114 20.7 µM | HOP-18 29.1 µM | KM-20L2 61.7 µM | M19-MEL 20.7 µM | SNB-78 45.7 µM | RXF 631 30.8 µM | XF498 20.2 µM

COc1ccc2nc3cc(Cl)ccc3c(Sc3ccc([N+](=O)[O-])cc3)c2c1
inactive: LXFL 529 > 10 µM | DLD-1 > 10 µM | DMS-114 > 10 µM | HOP-18 > 10 µM | KM-20L2 > 10 µM | M19-MEL > 10 µM | SNB-78 > 10 µM | RXF 631 > 10 µM | XF498 > 10 µM
